In patent publication US9856216B2, “Compounds as TNIK, IKKε and TBK1 inhibitors and pharmaceutical composition comprising same” (GREEN CROSS CORPORATION, priority 2015, dated 2018) one finds IC50 data, which are given here for 39 compounds.

In this assay the target is T1, TNIK (Homo sapiens, UniProt Q9UKE5).
T1 construct: purchased Promega V4158
T1 sequence (Q9UKE5 1-367 limits assumed): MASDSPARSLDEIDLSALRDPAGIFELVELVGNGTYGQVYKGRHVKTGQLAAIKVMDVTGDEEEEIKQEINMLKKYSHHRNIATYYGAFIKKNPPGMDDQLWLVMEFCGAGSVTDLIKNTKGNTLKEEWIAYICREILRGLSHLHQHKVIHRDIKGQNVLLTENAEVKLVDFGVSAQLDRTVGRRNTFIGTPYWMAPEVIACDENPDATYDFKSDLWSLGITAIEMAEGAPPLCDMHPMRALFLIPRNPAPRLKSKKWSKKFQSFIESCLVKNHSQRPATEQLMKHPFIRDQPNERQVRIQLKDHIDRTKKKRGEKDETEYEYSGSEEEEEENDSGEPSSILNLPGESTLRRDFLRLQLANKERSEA
Briefly: ADP-Glo Kinase Assay, inhibition activity on TNIK. The following applies: read-out: TNIK. In kind it is biochemical. The protocol:
The inhibition activities on TNIK, IKKε and TBK1 were measured by a luminometer, TNIK/IKKε/TBK1 Kinase Enzyme System (Promega, Ca# V4158; Invitrogen, PR8031B, Promega, Ca# V3991) and ADP-Glo Kinase Assay using ADP-Glo™ Kinase Analysis Kit (Promega, Ca# V9101) and a kinase reaction buffer [40 mM Tris(pH 7.5), 20 mM MgCl2, 0.1 mg/mL BSA] in accordance with the manufacturer's protocol.
Background: In ADP-Glo the light output rises with the ADP produced.
Consider `O=C(Nc1ccc(-c2ccccc2)c2c1C(=O)NC2)c1ccc(NCCN2CCCC2)cc1` [Example 317, N-(3-oxo-7-phenylisoindolin-4-yl)-4-((2-(pyrrolidin-1-yl)ethyl)amino)benzamide], for which the IC50 worked out at 360 nM.
On to `COc1ccccc1-c1ccc(NC(=O)c2ccc(NCCN3CCCC3)cc2)c2c1CNC2=O` [Example 318, N-(7-(2-methoxyphenyl)-3-oxoisoindolin-4-yl)-4-((2-(pyrrolidin-1-yl)ethyl)amino)benzamide], for which the IC50 turned out to be 260 nM.
The figure for `CN1CCN(c2ccc(C(=O)Nc3ccc(-c4ccccc4)c4c3C(=O)NC4)cc2)CC1` [Example 319, 4-(4-Methylpiperazin-1-yl)-N-(3-oxo-7-phenylisoindolin-4-yl)benzamide] is 2700 nM; for `O=C(Nc1ccc(-c2ccccc2)c2c1C(=O)NC2)c1ccc(N2CCOCC2)cc1` [Example 320, 4-Morpholino-N-(3-oxo-7-phenylisoindolin-4-yl)benzamide] it is 8800 nM; for `COCCNc1ccc(C(=O)Nc2ccc(-c3ccccc3)c3c2C(=O)NC3)cc1` [Example 321, 4-((2-Methoxyethyl)amino)-N-(3-oxo-7-phenylisoindolin-4-yl) benzamide] it is 500 nM.
Regarding `O=C(Nc1ccc(-c2ccccc2)c2c1C(=O)NC2)c1ccc(NCCN2CCOCC2)cc1` [Example 322, 4-((2-Morpholinoethyl)amino)-N-(3-oxo-7-phenylisoindolin-4-yl)benzamide], the IC50 came out at 340 nM.
The figure for `COc1ccccc1-c1ccc(NC(=O)c2ccc(N3CCOCC3)cc2)c2c1CNC2=O` [Example 323, N-(7-(2-methoxyphenyl)-3-oxoisoindolin-4-yl)-4-morpholino benzamide] is 370 nM.
For `COCCNc1ccc(C(=O)Nc2ccc(-c3ccccc3OC)c3c2C(=O)NC3)cc1` [Example 324, 4-((2-Methoxyethyl)amino)-N-(7-(2-methoxyphenyl)-3-oxoisoindolin-4-yl)benzamide] the value was 300 nM.
The figure for `COc1ccccc1-c1ccc(NC(=O)c2ccc(N3CCN(C)CC3)cc2)c2c1CNC2=O` [Example 325, N-(7-(2-methoxyphenyl)-3-oxoisoindolin-4-yl)-4-(4-methylpiperazin-1-yl)benzamide] is 370 nM.
For `COc1ccccc1-c1ccc(NC(=O)c2ccc(NCCN3CCOCC3)cc2)c2c1CNC2=O` [Example 326], the IC50 was 93 nM.
`O=C(Nc1ccc(-c2ccccc2)c2c1C(=O)NC2)c1ccc(NCCCN2CCOCC2)cc1` [Example 327, 4-((3-Morpholinopropyl)amino)-N-(3-oxo-7-phenylisoindolin-4-yl)benzamide]: the IC50 was 700 nM.
Regarding `COc1ccccc1-c1ccc(NC(=O)c2ccc(NCCCN3CCOCC3)cc2)c2c1CNC2=O` [Example 328], the IC50 amounted to 400 nM.
The figure for `CN1CCN(CCCNc2ccc(C(=O)Nc3ccc(-c4ccccc4)c4c3C(=O)NC4)cc2)CC1` [Example 329, 4-((3-(4-Methylpiperazin-1-yl)propyl)amino)-N-(3-oxo-7-phenylisoindolin-4-yl)benzamide] is 440 nM; for `COc1ccccc1-c1ccc(NC(=O)c2ccc(NCCCN3CCN(C)CC3)cc2)c2c1CNC2=O` [Example 330, N-(7-(2-methoxyphenyl)-3-oxoisoindolin-4-yl)-4-((3-(4-methylpiperazin-1-yl)propyl)amino)benzamide] it is 510 nM; for `COCCCNc1ccc(C(=O)Nc2ccc(-c3ccccc3)c3c2C(=O)NC3)cc1` [Example 331, 4-((3-Methoxypropyl)amino)-N-(3-oxo-7-phenylisoindolin-4-yl) benzamide] it is 790 nM.
On to `COCCCNc1ccc(C(=O)Nc2ccc(-c3ccccc3OC)c3c2C(=O)NC3)cc1` [Example 332, N-(7-(2-methoxyphenyl)-3-oxoisoindolin-4-yl)-4-((3-methoxypropyl)amino)benzamide], for which the IC50 turned out to be 510 nM.
The figure for `O=C(Nc1ccc(-c2ccccc2)c2c1C(=O)NC2)c1ccc(NCc2cccs2)cc1` [Example 333, N-(3-oxo-7-phenylisoindolin-4-yl)-4-((thiophen-2-ylmethyl)amino)benzamide] is 1600 nM; for `COc1ccccc1-c1ccc(NC(=O)c2ccc(NCc3cccs3)cc2)c2c1CNC2=O` [Example 334, N-(7-(2-methoxyphenyl)-3-oxoisoindolin-4-yl)-4-((thiophen-2-ylmethyl)amino)benzamide] it is 410 nM.
For `CN(C)CCCNc1ccc(C(=O)Nc2ccc(-c3ccco3)c3c2C(=O)NC3)cc1` [Example 335, 4-((3-(Dimethylamino)propyl)amino)-N-(7-(furan-2-yl)-3-oxoisoindolin-4-yl)benzamide], the IC50 worked out at 430 nM.
For `COCCCNc1ccc(C(=O)Nc2ccc(-c3ccco3)c3c2C(=O)NC3)cc1` [Example 336, N-(7-(furan-2-yl)-3-oxoisoindolin-4-yl)-4-((3-methoxypropyl)amino)benzamide], the IC50 amounted to 980 nM.
For `O=C(Nc1ccc(-c2ccco2)c2c1C(=O)NC2)c1ccc(NCCCN2CCOCC2)cc1` [Example 337, N-(7-(furan-2-yl)-3-oxoisoindolin-4-yl)-4-((3-morpholinopropyl)amino)benzamide], the IC50 is 560 nM.
The figure for `O=C(Nc1ccc(-c2ccco2)c2c1C(=O)NC2)c1ccc(NCCCN2CCCCC2)cc1` [Example 338, N-(7-(furan-2-yl)-3-oxoisoindolin-4-yl)-4-((3-(piperidin-1-yl)propyl)amino)benzamide] is 370 nM.
Turning to `O=C(Nc1ccc(-c2ccco2)c2c1C(=O)NC2)c1ccc(NCCCN2CCCC2)cc1` [Example 339, N-(7-(furan-2-yl)-3-oxoisoindolin-4-yl)-4-((3-(pyrrolidin-1-yl)propyl)amino)benzamide], the IC50 turned out to be 310 nM.
For `NC1CCN(c2ccc(C(=O)Nc3ccc(-c4ccccc4)c4c3C(=O)NC4)cc2)CC1` [Example 340, 4-(4-Aminopiperidin-1-yl)-N-(3-oxo-7-phenylisoindolin-4-yl) benzamide] the value was 680 nM.
The figure for `CN(C)CCNc1ccc(C(=O)Nc2ccc(-c3cccc4ncoc34)c3c2C(=O)NC3)cc1` [Example 341, N-(7-(benzo[d]oxazol-7-yl)-3-oxoisoindolin-4-yl)-4-((2-(dimethylamino)ethyl)amino)benzamide] is 38 nM; for `O=C(Nc1ccc(-c2cccc3ncoc23)c2c1C(=O)NC2)c1ccc(NCCN2CCCCC2)cc1` [Example 342, N-(7-(benzo[d]oxazol-7-yl)-3-oxoisoindolin-4-yl)-4-((2-(piperidin-1-yl)ethyl)amino)benzamide] it is 43 nM; for `O=C(Nc1ccc(-c2cccc3ncoc23)c2c1C(=O)NC2)c1ccc(NCCCN2CCCCC2)cc1` [Example 343, N-(7-(benzo[d]oxazol-7-yl)-3-oxoisoindolin-4-yl)-4-((3-(piperidin-1-yl)propyl)amino)benzamide] it is 42 nM.
Regarding `O=C(Nc1ccc(-c2cccc3ncoc23)c2c1C(=O)NC2)c1ccc(NCCN2CCCCCC2)cc1` [Example 344, 4-((2-(Azepan-1-yl)ethyl)amino)-N-(7-(benzo[d]oxazol-7-yl)-3-oxoisoindolin-4-yl)benzamide], the IC50 turned out to be 61 nM.
In the case of `O=C(Nc1ccc(-c2ccccc2)c2c1C(=O)NC2)c1ccc(OCCN2CCOCC2)cc1` [Example 345, 4-(2-Morpholinoethoxy)-N-(3-oxo-7-phenylisoindolin-4-yl) benzamide], the IC50 amounted to 1140 nM.
As for `O=C(Nc1cccc2c1C(=O)NC2)c1ccc(NCCN2CCCC2)cc1` [Example 346, N-(3-oxoisoindolin-4-yl)-4-((2-(pyrrolidin-1-yl)ethyl)amino) benzamide], the IC50 is 6170 nM.
For `COc1cccc(-c2ccc(NC(=O)c3ccc(OCCN4CCOCC4)cc3)c3c2CNC3=O)c1OC` [Example 347, N-(7-(2,3-dimethoxyphenyl)-3-oxoisoindolin-4-yl)-4-(2-morpholinoethoxy)benzamide] the value was 200 nM; for `Nc1cccc(-c2ccc(NC(=O)c3ccc(NCCN4CCOCC4)cc3)c3c2CNC3=O)c1O` [Example 348, N-(7-(3-amino-2-hydroxyphenyl)-3-oxoisoindolin-4-yl)-4-((2-morpholinoethyl)amino)benzamide], 3180 nM.
Consider `COc1ccccc1-c1ccc(NC(=O)c2ccc(NCCN3CCCCCC3)cc2)c2c1CNC2=O` [Example 349, 4-((2-(Azepan-1-yl)ethyl)amino)-N-(7-(2-methoxyphenyl)-3-oxoisoindolin-4-yl)benzamide], for which the IC50 came out at 240 nM.
For `COc1cccc(-c2ccc(NC(=O)c3ccc(NCCN4CCCCCC4)cc3)c3c2CNC3=O)c1OC` [Example 350, 4-((2-(Azepan-1-yl)ethyl)amino)-N-(7-(2,3-dimethoxyphenyl)-3-oxoisoindolin-4-yl)benzamide], the IC50 came out at 61 nM.
For `CN(C)CCCNc1ccc(C(=O)Nc2ccc(-c3ccccc3O)c3c2C(=O)NC3)cc1` [Example 351, 4-((3-(Dimethylamino)propyl)amino)-N-(7-(2-hydroxyphenyl)-3-oxoisoindolin-4-yl)benzamide] the value was 960 nM; for `COc1ccccc1-c1ccc(NC(=O)c2ccc(NCCO)cc2)c2c1CNC2=O` [Example 352, 4-((2-Hydroxyethyl)amino)-N-(7-(2-methoxyphenyl)-3-oxoisoindolin-4-yl)benzamide], 84 nM.
The figure for `O=C(Nc1ccc(-c2ccccc2O)c2c1C(=O)NC2)c1ccc(NCCO)cc1` [Example 353, 4-((2-Hydroxyethyl)amino)-N-(7-(2-hydroxyphenyl)-3-oxoisoindolin-4-yl)benzamide] is 370 nM; for `COc1ccccc1-c1ccc(NC(=O)c2ccc(NCCCO)cc2)c2c1CNC2=O` [Example 354] it is 220 nM.
`O=C(Nc1ccc(-c2ccccc2O)c2c1C(=O)NC2)c1ccc(NCCCO)cc1` [Example 355]: the IC50 was determined as 590 nM.
